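Compound exposure: 48 hours, 5 concentrations, 96-well plates. Abbreviation: GI50, concentration required for 50% inhibition of growth.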 Calls of active or inactive are those of the source. No stated cut-off is given here; in the data, active = GI50 up to about 1.1 µM and inactive = higher.
Legend:
Test in all cases: NCI anticancer screen, dose series, 48 h
T47D = system: T47D
CAKI-1 = system: CAKI-1
DU-145 = system: DU-145
SK-OV-3 = system: SK-OV-3
A549 = system: A549
KM12 = system: KM12
ACHN = system: ACHN
NCI-H522 = system: NCI-H522
HOP-62 = system: HOP-62
RPMI-8226 = system: RPMI-8226
PC-3 = system: PC-3
NCI-H226 = system: NCI-H226
U-251 = system: U-251
OVCAR-4 = system: OVCAR-4
LOX IMVI = system: LOX IMVI
COLO 205 = system: COLO 205
MDA-N = system: MDA-N
SW-620 = system: SW-620
SK-MEL-2 = system: SK-MEL-2
SR = system: SR

Measured: GI50

Cc1cc(O)c(C(C)C)cc1CN1CCCCC1
inactive: T47D > 100 µM | CAKI-1 > 100 µM | DU-145 > 100 µM | SK-OV-3 > 100 µM | A549 > 100 µM | KM12 > 100 µM | ACHN > 100 µM | NCI-H522 > 100 µM | HOP-62 > 100 µM | RPMI-8226 > 100 µM | PC-3 > 100 µM | NCI-H226 > 100 µM | U-251 > 100 µM | OVCAR-4 > 100 µM | LOX IMVI > 100 µM | COLO 205 > 100 µM | MDA-N > 100 µM | SW-620 > 100 µM

CNC(=O)CNC(=O)CCC(=O)OC
inactive: T47D > 100 µM | CAKI-1 > 100 µM | DU-145 > 100 µM | SK-OV-3 > 100 µM | A549 > 100 µM | KM12 > 100 µM | ACHN > 100 µM | NCI-H522 66.2 µM | HOP-62 > 100 µM | PC-3 > 100 µM | U-251 > 100 µM | OVCAR-4 > 100 µM | COLO 205 > 100 µM | MDA-N > 100 µM | SW-620 > 100 µM | SK-MEL-2 > 100 µM

CCOC(=O)CCC(NC(=O)c1ccc(Nc2nc3ccc(C(F)(F)F)cc3nc2-c2ccccc2)cc1)C(=O)OCC (stereo unspecified)
inactive: T47D 22.1 µM | SR 33.9 µM | CAKI-1 > 100 µM | DU-145 > 100 µM | A549 > 100 µM | KM12 > 94 µM | ACHN > 73.6 µM | NCI-H522 22.1 µM | HOP-62 > 100 µM | RPMI-8226 > 84.1 µM | NCI-H226 > 57.3 µM | U-251 > 100 µM | OVCAR-4 34.2 µM | LOX IMVI > 42 µM | COLO 205 16.2 µM | MDA-N 19.6 µM | SW-620 > 100 µM | SK-MEL-2 19.1 µM

CCN(CC)S(=O)(=O)c1ccc2[nH]c(NC(=O)OC)nc2c1
inactive: T47D 53.8 µM | SR 28.9 µM | CAKI-1 > 100 µM | DU-145 > 100 µM | SK-OV-3 > 100 µM | A549 94.6 µM | KM12 36.9 µM | NCI-H522 > 100 µM | HOP-62 40.3 µM | RPMI-8226 14 µM | NCI-H226 > 100 µM | U-251 > 100 µM | OVCAR-4 35.6 µM | LOX IMVI 42.6 µM | COLO 205 96.8 µM | MDA-N 18.5 µM | SW-620 33.7 µM | SK-MEL-2 > 100 µM

CC(=O)CC1(C)OC(N)=C(C#N)C1(C#N)C#N (stereo unspecified)
inactive: T47D > 100 µM | CAKI-1 59.4 µM | DU-145 > 100 µM | SK-OV-3 > 100 µM | A549 > 100 µM | KM12 > 100 µM | ACHN > 100 µM | NCI-H522 48.9 µM | HOP-62 55.1 µM | RPMI-8226 > 100 µM | PC-3 > 100 µM | NCI-H226 > 100 µM | U-251 > 100 µM | LOX IMVI 81.1 µM | COLO 205 45.9 µM | MDA-N > 100 µM | SW-620 > 100 µM | SK-MEL-2 > 100 µM

CC(=O)Oc1cc(C(F)(F)F)ccc1C(=O)OC1(C)OC(=O)c2ccc(C(F)(F)F)cc2O1 (stereo unspecified)
inactive: T47D > 100 µM | CAKI-1 > 100 µM | DU-145 > 100 µM | SK-OV-3 > 100 µM | A549 > 100 µM | KM12 > 100 µM | ACHN > 100 µM | NCI-H522 > 100 µM | HOP-62 > 100 µM | PC-3 > 100 µM | NCI-H226 > 100 µM | U-251 > 100 µM | OVCAR-4 > 100 µM | LOX IMVI > 100 µM | COLO 205 > 100 µM | MDA-N > 100 µM | SW-620 > 100 µM

O=[N+]([O-])/C(C(Cl)=C(Cl)Cl)=C(\N1CCOCC1)n1nnc2ccccc21
inactive: T47D 16.9 µM | CAKI-1 17.7 µM | DU-145 18.1 µM | SK-OV-3 27.2 µM | A549 16.7 µM | KM12 20.2 µM | ACHN 18.7 µM | NCI-H522 16 µM | HOP-62 18.8 µM | RPMI-8226 52.6 µM | PC-3 17.1 µM | NCI-H226 26.8 µM | U-251 16.7 µM | OVCAR-4 27.2 µM | COLO 205 18.8 µM | MDA-N 19.6 µM | SK-MEL-2 22.2 µM

c1ccc(CC2COC(c3cccs3)=N2)cc1 (stereo unspecified)
inactive: T47D 26 µM | SR 46.7 µM | CAKI-1 > 100 µM | DU-145 42.1 µM | SK-OV-3 > 68.9 µM | A549 92.7 µM | KM12 > 89.3 µM | ACHN 78.5 µM | NCI-H522 > 84.7 µM | HOP-62 > 100 µM | RPMI-8226 > 70.3 µM | NCI-H226 67.9 µM | U-251 53 µM | OVCAR-4 > 100 µM | LOX IMVI > 74.1 µM | COLO 205 > 100 µM | MDA-N > 100 µM | SW-620 > 100 µM | SK-MEL-2 43.8 µM

Reference: ChEMBL document CHEMBL1201862, “PubChem BioAssay data set” (2004)
